Source: patent publication US8853232B2, “Peripheral opioid receptor antagonists and uses thereof” (Progenics Pharmaceuticals, Inc., priority 2007, dated 2014)

Experiments:
human mu opioid receptor = human mu opioid receptor (Homo sapiens, UniProt P35372); assay: Radioligand competition binding at the human mu opioid receptor; conditions: for nH (Hill coefficient): human mu opioid receptor, competition curves
Description: Compounds of the invention were assayed for activity at the human mu opioid receptor by methods substantially similar to those described in Zhang, et al., (1998) “Dynorphin A as a potential endogenous ligand for four members of the opioid receptor gene family.” J. Pharmacol. Exp. Ther., 286: 136-141.
IC50 values (concentration causing a half-maximal inhibition of control specific binding) and Hill coefficients (nH) were determined by non-linear regression analysis of the competition curves using Hill equation curve fitting.
Inhibition constants (Ki) were calculated from the Cheng Prusoff equation: (Ki=IC50/(1+(L/KD)), where L=concentration of radioligand in the assay, and KD=affinity of the radioligand for the receptor).
Results are expressed as a percent of control specific binding obtained in the presence of compounds 6-alpha-methylnaltrexol, 6-beta-methylnaltrexol and 3-sulfo-methylnaltrexone.

[1] = target: μ-opioid receptors in the guinea pig ileum (Cavia porcellus, UniProt A0ACM8Q262); assay: Functional activity: inhibition of DAMGO-induced decrease of twitch contraction amplitude in guinea pig ileum; format: cell-based; conditions: read-out: IC50 Value (concentration causing a half-maximal inhibition of DAMGO-induced decrease of twitch contraction amplitude)
Description: The IC50 values (concentration causing a half-maximal inhibition of DAMGO-induced decrease of twitch contraction amplitude) were determined by non-linear regression analysis of the dose-response curves.
Results are expressed as a concentration causing a half-maximal inhibition of DAMGO-induced decrease of twitch contraction amplitude of guinea-pig ileum in the presence of compounds 6-alpha-methylnaltrexol, 6-beta-methylnaltrexol and 3-sulfo-methylnaltrexone.

Sequence of human mu opioid receptor (P35372 whole entry): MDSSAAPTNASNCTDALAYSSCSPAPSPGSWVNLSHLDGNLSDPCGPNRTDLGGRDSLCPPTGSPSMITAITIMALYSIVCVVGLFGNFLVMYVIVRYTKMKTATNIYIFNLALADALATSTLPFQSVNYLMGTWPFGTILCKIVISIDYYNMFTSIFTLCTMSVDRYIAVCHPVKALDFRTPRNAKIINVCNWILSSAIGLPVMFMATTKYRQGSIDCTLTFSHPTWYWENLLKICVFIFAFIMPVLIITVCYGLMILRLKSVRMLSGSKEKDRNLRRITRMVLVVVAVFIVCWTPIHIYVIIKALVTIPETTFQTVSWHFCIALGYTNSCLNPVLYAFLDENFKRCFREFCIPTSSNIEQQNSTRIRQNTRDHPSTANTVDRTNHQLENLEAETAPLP
Sequence of μ-opioid receptors in the guinea pig ileum (A0ACM8Q262 1-400): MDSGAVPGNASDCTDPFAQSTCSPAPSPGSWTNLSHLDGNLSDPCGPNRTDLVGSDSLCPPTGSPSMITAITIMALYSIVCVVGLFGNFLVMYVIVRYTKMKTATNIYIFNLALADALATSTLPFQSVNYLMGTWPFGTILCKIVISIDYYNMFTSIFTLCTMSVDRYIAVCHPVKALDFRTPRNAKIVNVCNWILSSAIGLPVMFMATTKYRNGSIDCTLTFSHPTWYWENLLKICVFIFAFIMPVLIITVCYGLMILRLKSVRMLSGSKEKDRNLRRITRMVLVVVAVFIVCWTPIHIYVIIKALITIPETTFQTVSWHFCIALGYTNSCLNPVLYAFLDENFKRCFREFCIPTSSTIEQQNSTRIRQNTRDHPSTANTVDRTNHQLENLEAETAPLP

Compound | IC50 (human mu opioid receptor) [nM] | Ki (human mu opioid receptor) [nM] | nH (Hill coefficient) (human mu opioid receptor) | IC50 [1] [nM]
C[N+]1(CC2CC2)CC[C@]23c4c5ccc(O)c4O[C@H]2[C@@H](O)CC[C@@]3(O)[C@H]1C5 (stereo partly drawn) [Compound I-1, (5α,6α)-17-cyclopropylmethyl-17-methyl-4,5-epoxy-3,6,14-trihydroxy-morphinan bromide] | 110 | 30 | 0.8 | 170
C[N+]1(CC2CC2)CC[C@]23c4c5ccc(OS(=O)(=O)O)c4O[C@H]2C(=O)CC[C@@]3(O)[C@H]1C5 (stereo partly drawn) [Compound I-3, 3 sulfo-methylnaltrexone] | 8300 | 2200 | 0.8 | 10000
C[N+]1(CC2CC2)CC[C@]23c4c5ccc(O)c4O[C@H]2[C@H](O)CC[C@@]3(O)[C@H]1C5 (stereo partly drawn) [Compound I-2, (5α,6β)-17-cyclopropylmethyl-17-methyl-4,5-epoxy-3,6,14-trihydroxy-morphinan bromide] | 230 | 60 | 0.9 | 140
